% of control, % of inhibition and % activity data for eight compounds are collected here from ChEMBL document CHEMBL5465560, “Selectivity Literature for EUbOPEN Chemogenomic Library” (2024).

Some results are limits rather than exact numbers.

The target of assay [1] is Calcium/calmodulin-dependent protein kinase type II subunit gamma (Homo sapiens) (UniProt Q13555). The assay is described as follows: Selectivity interaction (Ambit KINOMEscan and KiNATiv profiling in Jurkat cells) EUB0000090b CAMK2G. Format: cell-based. The conditions noted are these: at 1 µM.
Assay [2] deals with T1, Serine/threonine-protein kinase Nek2 (Homo sapiens) (UniProt P51955).
T1 sequence (whole entry): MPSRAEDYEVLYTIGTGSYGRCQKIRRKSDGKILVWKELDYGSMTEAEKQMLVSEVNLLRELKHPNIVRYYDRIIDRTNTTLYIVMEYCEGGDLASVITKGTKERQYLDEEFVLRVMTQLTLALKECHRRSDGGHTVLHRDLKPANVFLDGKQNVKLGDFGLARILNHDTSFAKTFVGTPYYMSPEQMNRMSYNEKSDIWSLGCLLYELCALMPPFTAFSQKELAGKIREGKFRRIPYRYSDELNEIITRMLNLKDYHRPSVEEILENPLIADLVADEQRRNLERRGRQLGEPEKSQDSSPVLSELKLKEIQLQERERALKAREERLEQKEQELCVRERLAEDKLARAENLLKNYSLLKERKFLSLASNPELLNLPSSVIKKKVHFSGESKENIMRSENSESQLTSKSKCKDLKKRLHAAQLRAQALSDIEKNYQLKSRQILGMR
The assay is described as follows: Selectivity interaction (Kinase screening (Nanosyn)) EUB0000604a NEK2.

Assay [3] has as its target Ribosomal protein S6 kinase alpha-1 (Homo sapiens, UniProt Q15418). The assay is described as follows: Selectivity interaction (KinomeScan (DiscoverX)) EUB0000666a RPS6KA1. The conditions noted are these: at 10 µM.
Assay [4] deals with T2, Kinase suppressor of Ras 2 (Homo sapiens) (UniProt Q6VAB6).
T2 sequence (whole entry): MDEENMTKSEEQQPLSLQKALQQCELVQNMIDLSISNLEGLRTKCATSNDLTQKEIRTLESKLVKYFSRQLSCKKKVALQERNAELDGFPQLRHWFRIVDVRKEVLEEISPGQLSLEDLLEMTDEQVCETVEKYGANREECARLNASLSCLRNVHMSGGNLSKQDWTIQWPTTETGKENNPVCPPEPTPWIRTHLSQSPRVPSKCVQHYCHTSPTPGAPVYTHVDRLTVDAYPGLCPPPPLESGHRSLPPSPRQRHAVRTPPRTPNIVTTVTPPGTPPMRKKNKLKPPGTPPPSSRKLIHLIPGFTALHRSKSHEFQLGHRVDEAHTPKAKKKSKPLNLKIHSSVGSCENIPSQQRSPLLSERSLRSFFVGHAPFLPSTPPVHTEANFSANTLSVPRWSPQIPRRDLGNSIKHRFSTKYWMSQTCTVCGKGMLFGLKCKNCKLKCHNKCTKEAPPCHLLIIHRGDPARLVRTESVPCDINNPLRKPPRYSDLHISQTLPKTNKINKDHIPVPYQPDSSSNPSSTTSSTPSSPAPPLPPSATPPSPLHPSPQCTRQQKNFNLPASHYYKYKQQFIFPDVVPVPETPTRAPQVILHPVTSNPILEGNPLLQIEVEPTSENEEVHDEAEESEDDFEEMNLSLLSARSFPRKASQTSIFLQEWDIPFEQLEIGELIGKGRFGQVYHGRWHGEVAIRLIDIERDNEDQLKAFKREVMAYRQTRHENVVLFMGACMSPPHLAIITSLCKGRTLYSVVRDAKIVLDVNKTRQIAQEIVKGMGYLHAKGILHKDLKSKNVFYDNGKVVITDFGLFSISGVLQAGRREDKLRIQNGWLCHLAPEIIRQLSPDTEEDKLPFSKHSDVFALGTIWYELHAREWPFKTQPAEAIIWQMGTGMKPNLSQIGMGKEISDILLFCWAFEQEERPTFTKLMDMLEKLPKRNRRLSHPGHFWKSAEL
As to the kind of experiment: Selectivity interaction (Kinase panel (Z-LYTE Assay)) EUB0001632a KSR2. The conditions noted are these: at 10 µM.

Assay [5] deals with Proto-oncogene tyrosine-protein kinase ROS (Homo sapiens) (UniProt P08922). As to the kind of experiment: Selectivity interaction (Kinase panel (Z-LYTE Assay)) EUB0001632a ROS1. The conditions noted are these: at 10 µM.
Chain of Proto-oncogene tyrosine-protein kinase ROS (Homo sapiens) (P08922 whole entry): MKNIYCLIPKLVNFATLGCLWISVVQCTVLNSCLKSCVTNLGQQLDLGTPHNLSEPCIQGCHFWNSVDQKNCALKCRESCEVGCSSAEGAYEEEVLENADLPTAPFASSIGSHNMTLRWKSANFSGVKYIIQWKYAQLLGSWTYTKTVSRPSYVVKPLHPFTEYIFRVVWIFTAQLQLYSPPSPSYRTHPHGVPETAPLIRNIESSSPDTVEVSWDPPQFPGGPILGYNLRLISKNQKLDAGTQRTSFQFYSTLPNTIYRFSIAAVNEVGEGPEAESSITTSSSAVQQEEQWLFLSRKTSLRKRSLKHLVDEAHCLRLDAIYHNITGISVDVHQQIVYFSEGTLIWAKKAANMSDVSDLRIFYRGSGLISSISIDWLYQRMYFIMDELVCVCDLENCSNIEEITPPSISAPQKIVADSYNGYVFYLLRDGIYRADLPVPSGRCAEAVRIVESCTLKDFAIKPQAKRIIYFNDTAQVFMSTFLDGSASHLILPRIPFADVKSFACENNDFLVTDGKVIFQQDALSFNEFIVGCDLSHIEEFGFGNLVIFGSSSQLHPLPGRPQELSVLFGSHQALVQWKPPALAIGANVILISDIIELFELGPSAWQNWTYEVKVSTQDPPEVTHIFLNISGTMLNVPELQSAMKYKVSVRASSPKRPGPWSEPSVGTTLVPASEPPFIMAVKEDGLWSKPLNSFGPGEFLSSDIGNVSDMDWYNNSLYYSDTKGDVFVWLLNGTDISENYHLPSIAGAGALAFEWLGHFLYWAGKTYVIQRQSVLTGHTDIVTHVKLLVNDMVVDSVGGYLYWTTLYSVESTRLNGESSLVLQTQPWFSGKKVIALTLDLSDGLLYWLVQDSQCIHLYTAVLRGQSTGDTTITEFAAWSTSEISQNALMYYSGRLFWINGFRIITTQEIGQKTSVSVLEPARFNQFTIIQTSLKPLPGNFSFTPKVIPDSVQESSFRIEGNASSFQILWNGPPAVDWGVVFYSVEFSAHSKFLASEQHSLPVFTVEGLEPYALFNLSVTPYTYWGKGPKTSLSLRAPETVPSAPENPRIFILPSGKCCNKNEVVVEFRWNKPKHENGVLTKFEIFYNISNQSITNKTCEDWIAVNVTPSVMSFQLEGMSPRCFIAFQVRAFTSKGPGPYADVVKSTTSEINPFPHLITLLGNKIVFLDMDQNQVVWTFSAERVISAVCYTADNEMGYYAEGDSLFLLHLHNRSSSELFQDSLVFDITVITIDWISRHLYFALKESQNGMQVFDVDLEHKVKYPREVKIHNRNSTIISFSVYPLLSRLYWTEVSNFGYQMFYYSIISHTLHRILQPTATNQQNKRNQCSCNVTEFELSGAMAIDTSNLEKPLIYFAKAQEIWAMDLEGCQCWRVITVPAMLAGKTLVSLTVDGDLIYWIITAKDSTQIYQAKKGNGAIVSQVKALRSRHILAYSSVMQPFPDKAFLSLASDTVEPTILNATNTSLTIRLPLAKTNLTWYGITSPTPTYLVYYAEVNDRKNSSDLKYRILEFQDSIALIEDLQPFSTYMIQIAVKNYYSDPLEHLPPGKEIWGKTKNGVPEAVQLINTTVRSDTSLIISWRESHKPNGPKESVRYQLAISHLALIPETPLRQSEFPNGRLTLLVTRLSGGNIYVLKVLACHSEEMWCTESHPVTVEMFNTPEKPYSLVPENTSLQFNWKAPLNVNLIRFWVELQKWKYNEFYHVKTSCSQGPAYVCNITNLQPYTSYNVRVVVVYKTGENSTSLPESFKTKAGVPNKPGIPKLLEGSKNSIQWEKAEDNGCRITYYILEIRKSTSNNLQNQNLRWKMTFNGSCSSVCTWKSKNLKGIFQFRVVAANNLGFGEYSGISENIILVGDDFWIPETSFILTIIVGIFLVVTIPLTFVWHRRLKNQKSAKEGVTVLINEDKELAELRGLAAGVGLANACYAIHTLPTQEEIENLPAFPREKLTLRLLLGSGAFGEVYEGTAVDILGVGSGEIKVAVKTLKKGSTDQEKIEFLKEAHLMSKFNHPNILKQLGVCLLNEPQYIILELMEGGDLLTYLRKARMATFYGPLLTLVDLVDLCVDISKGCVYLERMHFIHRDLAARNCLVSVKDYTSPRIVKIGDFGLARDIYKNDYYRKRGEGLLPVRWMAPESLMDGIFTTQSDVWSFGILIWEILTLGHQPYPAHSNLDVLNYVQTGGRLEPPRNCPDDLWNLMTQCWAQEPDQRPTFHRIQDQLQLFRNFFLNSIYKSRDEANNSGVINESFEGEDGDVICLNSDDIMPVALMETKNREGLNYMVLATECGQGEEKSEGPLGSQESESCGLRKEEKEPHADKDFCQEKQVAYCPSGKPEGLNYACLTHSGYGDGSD
Assay [6] addresses DNA (cytosine-5)-methyltransferase 3A (Homo sapiens) (UniProt Q9Y6K1). The conditions noted are these: at 10 µM.
Assay [7] has as its target T3, Serine/threonine-protein kinase 17B (Homo sapiens) (UniProt O94768).
T3 sequence (whole entry): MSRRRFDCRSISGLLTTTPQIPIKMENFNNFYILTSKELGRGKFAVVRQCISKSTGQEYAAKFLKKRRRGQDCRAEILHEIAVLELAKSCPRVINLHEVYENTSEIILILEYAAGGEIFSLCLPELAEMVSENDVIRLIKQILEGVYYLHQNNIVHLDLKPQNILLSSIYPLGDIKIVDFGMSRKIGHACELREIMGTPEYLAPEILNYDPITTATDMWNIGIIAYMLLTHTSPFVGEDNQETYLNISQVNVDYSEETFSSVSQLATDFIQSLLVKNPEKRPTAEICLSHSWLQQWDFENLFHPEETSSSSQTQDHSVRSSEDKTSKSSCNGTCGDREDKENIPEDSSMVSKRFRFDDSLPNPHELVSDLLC
As to the kind of experiment: Selectivity interaction (KinomeScan (DiscoverX)) EUB0000595a STK17B. The conditions noted are these: at 10 µM.

Assay [8] deals with MAP/microtubule affinity-regulating kinase 3 (Homo sapiens) (UniProt P27448). The assay is described as follows: Selectivity interaction (Kinase panel (literature)) EUB0001199aCl MARK3. The conditions noted are these: at 1 µM.
Chain of MAP/microtubule affinity-regulating kinase 3 (Homo sapiens) (P27448 whole entry, looked up): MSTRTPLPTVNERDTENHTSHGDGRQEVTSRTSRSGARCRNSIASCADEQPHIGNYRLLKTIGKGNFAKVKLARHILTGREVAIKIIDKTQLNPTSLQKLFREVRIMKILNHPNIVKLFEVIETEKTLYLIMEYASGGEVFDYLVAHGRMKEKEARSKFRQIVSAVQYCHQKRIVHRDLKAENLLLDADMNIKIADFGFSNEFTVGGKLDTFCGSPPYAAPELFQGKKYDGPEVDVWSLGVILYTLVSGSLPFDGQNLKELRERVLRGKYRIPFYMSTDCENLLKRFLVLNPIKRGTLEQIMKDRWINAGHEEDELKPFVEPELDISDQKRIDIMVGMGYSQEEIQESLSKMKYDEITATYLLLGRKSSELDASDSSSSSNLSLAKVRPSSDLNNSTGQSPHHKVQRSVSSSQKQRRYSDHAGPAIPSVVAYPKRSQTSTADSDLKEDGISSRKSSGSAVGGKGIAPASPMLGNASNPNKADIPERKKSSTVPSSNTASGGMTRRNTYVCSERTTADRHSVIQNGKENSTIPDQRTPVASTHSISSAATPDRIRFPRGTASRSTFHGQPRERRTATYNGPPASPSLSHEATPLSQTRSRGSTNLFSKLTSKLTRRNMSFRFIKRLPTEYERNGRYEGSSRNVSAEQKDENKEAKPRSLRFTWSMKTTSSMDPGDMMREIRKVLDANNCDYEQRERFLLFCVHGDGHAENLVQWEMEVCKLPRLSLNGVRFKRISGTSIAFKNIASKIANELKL
Assay [9] addresses T4, Inhibitor of nuclear factor kappa-B kinase subunit epsilon (Homo sapiens) (UniProt Q14164).
T4 sequence (whole entry): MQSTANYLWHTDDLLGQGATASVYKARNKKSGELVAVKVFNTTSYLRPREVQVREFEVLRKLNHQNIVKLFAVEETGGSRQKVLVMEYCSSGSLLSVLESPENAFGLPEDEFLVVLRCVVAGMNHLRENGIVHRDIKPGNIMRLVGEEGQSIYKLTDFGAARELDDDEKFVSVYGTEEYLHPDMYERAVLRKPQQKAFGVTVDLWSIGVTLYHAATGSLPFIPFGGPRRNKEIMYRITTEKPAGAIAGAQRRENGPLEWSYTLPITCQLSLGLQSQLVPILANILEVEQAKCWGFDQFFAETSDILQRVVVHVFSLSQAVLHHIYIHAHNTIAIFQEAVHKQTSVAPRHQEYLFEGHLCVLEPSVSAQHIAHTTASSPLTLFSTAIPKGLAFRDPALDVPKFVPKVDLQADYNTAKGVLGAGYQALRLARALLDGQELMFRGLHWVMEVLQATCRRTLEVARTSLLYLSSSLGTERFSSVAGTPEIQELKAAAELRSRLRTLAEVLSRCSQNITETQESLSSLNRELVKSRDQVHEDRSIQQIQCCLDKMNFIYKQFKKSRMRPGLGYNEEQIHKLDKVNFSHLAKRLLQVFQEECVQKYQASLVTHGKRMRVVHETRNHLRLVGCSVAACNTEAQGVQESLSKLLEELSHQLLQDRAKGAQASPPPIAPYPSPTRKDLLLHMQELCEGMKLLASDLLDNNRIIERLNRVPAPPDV
As to the kind of experiment: Selectivity interaction (KinomeScan (DiscoverX)) EUB0000618a IKBKE. The conditions noted are these: at 10 µM.

Chain of DNA (cytosine-5)-methyltransferase 3A (Homo sapiens) (Q9Y6K1 whole entry, looked up): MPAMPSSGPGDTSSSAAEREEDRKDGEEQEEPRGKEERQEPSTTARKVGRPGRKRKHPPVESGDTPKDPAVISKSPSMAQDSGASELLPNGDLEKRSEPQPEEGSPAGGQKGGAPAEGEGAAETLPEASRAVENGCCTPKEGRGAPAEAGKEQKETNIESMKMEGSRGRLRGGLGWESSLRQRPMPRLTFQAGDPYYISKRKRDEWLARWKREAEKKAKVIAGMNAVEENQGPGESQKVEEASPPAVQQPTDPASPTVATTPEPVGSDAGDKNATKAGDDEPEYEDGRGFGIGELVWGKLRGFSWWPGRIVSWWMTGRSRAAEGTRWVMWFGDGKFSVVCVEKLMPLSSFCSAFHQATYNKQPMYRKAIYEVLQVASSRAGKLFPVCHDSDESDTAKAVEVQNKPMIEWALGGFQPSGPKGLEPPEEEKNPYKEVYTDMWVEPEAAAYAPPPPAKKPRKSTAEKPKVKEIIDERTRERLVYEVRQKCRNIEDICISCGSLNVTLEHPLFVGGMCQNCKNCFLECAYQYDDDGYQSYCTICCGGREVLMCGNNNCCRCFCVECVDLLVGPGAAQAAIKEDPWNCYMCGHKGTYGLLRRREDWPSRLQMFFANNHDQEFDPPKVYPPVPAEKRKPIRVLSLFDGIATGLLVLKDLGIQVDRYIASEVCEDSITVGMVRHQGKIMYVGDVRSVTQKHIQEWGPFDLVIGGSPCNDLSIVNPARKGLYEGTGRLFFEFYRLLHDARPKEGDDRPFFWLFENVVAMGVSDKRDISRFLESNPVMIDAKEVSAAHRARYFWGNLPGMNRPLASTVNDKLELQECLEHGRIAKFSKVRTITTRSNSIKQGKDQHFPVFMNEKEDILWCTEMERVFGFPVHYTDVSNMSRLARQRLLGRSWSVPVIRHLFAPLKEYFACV
Chain of Ribosomal protein S6 kinase alpha-1 (Q15418 whole entry): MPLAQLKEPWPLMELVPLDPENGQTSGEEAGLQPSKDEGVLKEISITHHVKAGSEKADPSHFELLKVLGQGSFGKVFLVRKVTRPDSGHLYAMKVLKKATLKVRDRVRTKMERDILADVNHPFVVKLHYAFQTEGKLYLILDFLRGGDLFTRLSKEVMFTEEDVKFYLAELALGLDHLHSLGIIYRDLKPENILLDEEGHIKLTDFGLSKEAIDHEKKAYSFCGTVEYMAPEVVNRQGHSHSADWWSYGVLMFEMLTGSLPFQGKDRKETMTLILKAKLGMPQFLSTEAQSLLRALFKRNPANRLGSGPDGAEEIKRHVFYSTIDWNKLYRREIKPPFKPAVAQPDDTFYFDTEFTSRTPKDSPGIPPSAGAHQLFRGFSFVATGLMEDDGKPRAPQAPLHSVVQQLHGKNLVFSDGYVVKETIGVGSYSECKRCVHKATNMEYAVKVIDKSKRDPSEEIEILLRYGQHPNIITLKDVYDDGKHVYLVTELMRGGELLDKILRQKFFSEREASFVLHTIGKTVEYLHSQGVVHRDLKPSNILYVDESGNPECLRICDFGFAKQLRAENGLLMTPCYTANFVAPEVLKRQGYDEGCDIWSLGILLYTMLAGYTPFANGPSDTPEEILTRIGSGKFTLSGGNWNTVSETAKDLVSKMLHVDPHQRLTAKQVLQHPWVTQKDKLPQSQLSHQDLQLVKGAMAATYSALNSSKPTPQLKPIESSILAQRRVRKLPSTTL

`CN(C)C/C=C/C(=O)Nc1ccc(C(=O)N2CCCC(Nc3ncc(Cl)c(-c4c[nH]c5ccccc45)n3)C2)cc1` (centres undefined): the % of control in assay [1] amounted to 93%. Take `Cc1cnc(Nc2ccc(F)cc2Cl)nc1-c1c[nH]c(C(=O)N[C@H](CO)c2cccc(Cl)c2)c1`: in assay [2], the % of inhibition stood at 3%. As for `O=C(NOC[C@H](O)CO)c1ccc(F)c(F)c1Nc1ccc(I)cc1F`, in assay [3], the % of control came out at 84%.

As for `Cn1cc(-n2cnc3c(NCc4nc5cc(Cl)c(Cl)cc5[nH]4)nc(N4CCOCC4)nc32)cn1`, the % of control is 1.65% in assay [4] and 0.847% in [5].

Take `CNCCN1CCC(c2cc(CN(C)C(=O)c3cccc(Oc4ccccc4)c3)ccn2)CC1`: in assay [6], the % activity is > 90%. `COCC(=O)NC/C=C/c1ccc2ncnc(Nc3ccc(Oc4ccc(C)nc4)c(C)c3)c2c1` [CP-724714]: the % of control in [7] was determined as 100%. Turning to `CN1Cc2nccc(-c3cn(C)nc3-c3ccc(F)cc3)c2C1=O`, the % of inhibition in [8] was -2%. For the compound `O[C@H]1CC[C@H](Nc2ncc3nc(Nc4c(F)cc(F)cc4F)n([C@H]4CCOC4)c3n2)CC1`, the % of control in assay [9] came out at 85%.
